Experimental data: patent US20030104507A1, “Method for detection of ATP” (priority 2001, published 2003)

Tested on: ATPase activity endogenous to L929 cell lysate
Assay: Detergent inhibition of ATPase endogenous to L929 cell lysate (ATP remaining by luciferase luminescence, 22° C.)
Format: biochemical
Design: key to Relative ATPase Activity, slope det/slope lysate: slope with detergent / slope without; ≥1.0 = 100% activity, 0.5 = 50%
Method in brief: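 L929 lysate (1.5×10^5 cells/ml, four freeze–thaw cycles) held with detergent at final 1.0, 0.5, 0.1 or 0.05% at 22° C; remaining ATP read over time with luciferase-luciferin reagent (100 μM luciferin, 10 mM MgSO4, pH 7.5). Relative ATPase activity = slope of log % ATP remaining vs time with detergent ÷ slope for lysate-only control.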

[1] = 0.50 percent detergent, second 0.50 line of DTAB (assayed on two days)
[2] = Example 2, 0.02% detergent, 5 min
[3] = Example 2, 0.02% detergent, 75 min
[4] = Example 2, 0.02% detergent, 169 min
[5] = Example 2, 0.02% detergent, 222 min
[6] = Example 2, 0.02% detergent, 260 min
[7] = Example 2, 0.5% detergent, 5 min
[8] = Example 2, 0.5% detergent, 75 min
[9] = Example 2, 0.5% detergent, 169 min
[10] = Example 2, 0.5% detergent, 222 min
[11] = Example 2, 0.5% detergent, 260 min

CCCCCCCCCCCC[N+](C)(C)C.[Br-] [DTAB, dodecyltrimethylammonium bromide]
Relative ATPase Activity, slope det/slope lysate (0.02 percent detergent): 0.884
Slope (log percent ATP remaining vs time in minutes) (0.02 percent detergent): −0.0056
Average Relative Light Unit Values (0.05% detergent, 5 min): 6487.93 rlu
Percent ATP Remaining (0.05% detergent, 5 min): 100%
Average Relative Light Unit Values (0.05% detergent, 75 min): 3138.81 rlu
Percent ATP Remaining (0.05% detergent, 75 min): 48.4%
Average Relative Light Unit Values (0.05% detergent, 169 min): 1496.01 rlu
Percent ATP Remaining (0.05% detergent, 169 min): 23.1%
Average Relative Light Unit Values (0.05% detergent, 222 min): 943.40 rlu
Percent ATP Remaining (0.05% detergent, 222 min): 14.5%
Average Relative Light Unit Values (0.05% detergent, 260 min): 638.30 rlu
Percent ATP Remaining (0.05% detergent, 260 min): 9.8%
Relative ATPase Activity, slope det/slope lysate (0.05 percent detergent): 0.690
Slope (log percent ATP remaining vs time in minutes) (0.05 percent detergent): −0.0039
Average Relative Light Unit Values (0.1% detergent, 5 min): 6991.01 rlu
Percent ATP Remaining (0.1% detergent, 5 min): 100%
Average Relative Light Unit Values (0.1% detergent, 75 min): 4753.46 rlu
Percent ATP Remaining (0.1% detergent, 75 min): 68.0%
Average Relative Light Unit Values (0.1% detergent, 169 min): 2737.36 rlu
Percent ATP Remaining (0.1% detergent, 169 min): 39.2%
Average Relative Light Unit Values (0.1% detergent, 222 min): 1950.95 rlu
Percent ATP Remaining (0.1% detergent, 222 min): 27.9%
Average Relative Light Unit Values (0.1% detergent, 260 min): 1408.18 rlu
Percent ATP Remaining (0.1% detergent, 260 min): 20.1%
Relative ATPase Activity, slope det/slope lysate (0.10 percent detergent): 0.480
Slope (log percent ATP remaining vs time in minutes) (0.10 percent detergent): −0.0027
Percent ATP Remaining (0.5% (1), 5 min): 100%
Percent ATP Remaining (0.5% (1), 75 min): 90.6%
Percent ATP Remaining (0.5% (1), 169 min): 88.0%
Percent ATP Remaining (0.5% (1), 222 min): 87.3%
Percent ATP Remaining (0.5% (1), 260 min): 80.2%
Percent ATP Remaining (0.5% (2), 5 min): 100%
Percent ATP Remaining (0.5% (2), 75 min): 95.8%
Percent ATP Remaining (0.5% (2), 169 min): 90.3%
Percent ATP Remaining (0.5% (2), 222 min): 88.0%
Percent ATP Remaining (0.5% (2), 260 min): 85.0%
Average Relative Light Unit Values (0.5% (day 1), 5 min): 5630.61 rlu
Average Relative Light Unit Values (0.5% (day 1), 75 min): 5100.09 rlu
Average Relative Light Unit Values (0.5% (day 1), 169 min): 4957.48 rlu
Average Relative Light Unit Values (0.5% (day 1), 222 min): 4916.46 rlu
Average Relative Light Unit Values (0.5% (day 1), 260 min): 4515.20 rlu
Average Relative Light Unit Values (0.5% (day 2), 5 min): 6617.08 rlu
Average Relative Light Unit Values (0.5% (day 2), 75 min): 6341.09 rlu
Average Relative Light Unit Values (0.5% (day 2), 169 min): 5977.33 rlu
Average Relative Light Unit Values (0.5% (day 2), 222 min): 5824.18 rlu
Average Relative Light Unit Values (0.5% (day 2), 260 min): 5622.12 rlu
Relative ATPase Activity, slope det/slope lysate (0.50 percent detergent): 0.055
Slope (log percent ATP remaining vs time in minutes) (0.50 percent detergent): −0.0003
Relative ATPase Activity, slope det/slope lysate [1]: 0.048
Slope (log percent ATP remaining vs time in minutes) [1]: −0.0003
Average Relative Light Unit Values (1.0% detergent, 5 min): 800.61 rlu
Percent ATP Remaining (1.0% detergent, 5 min): 100%
Average Relative Light Unit Values (1.0% detergent, 75 min): 693.13 rlu
Percent ATP Remaining (1.0% detergent, 75 min): 86.6%
Average Relative Light Unit Values (1.0% detergent, 169 min): 649.41 rlu
Percent ATP Remaining (1.0% detergent, 169 min): 81.1%
Average Relative Light Unit Values (1.0% detergent, 222 min): 671.03 rlu
Percent ATP Remaining (1.0% detergent, 222 min): 83.8%
Average Relative Light Unit Values (1.0% detergent, 260 min): 645.40 rlu
Percent ATP Remaining (1.0% detergent, 260 min): 80.6%
Relative ATPase Activity, slope det/slope lysate (1.00 percent detergent): 0.057
Slope (log percent ATP remaining vs time in minutes) (1.00 percent detergent): −0.0003
Average Relative Light Unit Values [2]: 5870.43 rlu
Percent ATP Remaining [2]: 100.00%
Average Relative Light Unit Values [3]: 1997.09 rlu
Percent ATP Remaining [3]: 34.02%
Average Relative Light Unit Values [4]: 435.05 rlu
Percent ATP Remaining [4]: 7.41%
Average Relative Light Unit Values [5]: 329.83 rlu
Percent ATP Remaining [5]: 5.62%
Average Relative Light Unit Values [6]: 227.72 rlu
Percent ATP Remaining [6]: 3.88%
Average Relative Light Unit Values [7]: 5189.8 rlu
Percent ATP Remaining [7]: 100.00%
Average Relative Light Unit Values [8]: 4564.65 rlu
Percent ATP Remaining [8]: 87.95%
Average Relative Light Unit Values [9]: 4111.89 rlu
Percent ATP Remaining [9]: 79.23%
Average Relative Light Unit Values [10]: 4230.51 rlu
Percent ATP Remaining [10]: 81.52%
Average Relative Light Unit Values [11]: 4267.32 rlu
Percent ATP Remaining [11]: 82.23%
concentrations which resulted in a 25% or greater decrease in the relative ATPase activity (compared to reactions in the absence of detergent): ≥ 0.05%
